Data on 19 compounds can be found in patent US7981903B2, “2-[2-{phenylamino}-1H-pyrrolo[2,3-D]pyrimidin-4-yl)amino] benzamide derivatives as IGF-1R inhibitors for the treatment of cancer” (GlaxoSmithKline LLC, priority 2007, dated 2011).

One assay deals with T1, human IGF1R (hIGF1R) (Homo sapiens, UniProt P08069).
T1 construct: containing amino acid residues 957-1367 of human IGF1R; made in house; host or cells: Sf9 cells (baculovirus)
The assay can be described thus: TR-FRET kinase assay of purified hIGF1R. In kind it is biochemical. The following applies: activated hIGF1R 0.5 nM, 10 μM ATP, values given as pIC50 category, read-out: IGF-1R pIC50 (converted). (TR-FRET usually uses a lanthanide donor and a delayed reading to cut background.)

Assay [1] has as its target T2, NIH-3T3 cells overexpressing human IR (Homo sapiens, UniProt P06213).
T2 construct: expressed in transfected cells; host or cells: NIH-3T3 (mouse fibroblasts)
Put plainly: IR cellular autophosphorylation (DELFIA). In kind it is cell-based. The conditions noted are these: 2 h compound, insulin 3 ug/ml for 15 minutes, IC50 category. The gist of the method: (§1)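 Receptor autophosphorylation measured by DELFIA, capturing IGF-1R or IRβ and detecting with europium anti-pTyr, reported as percent of IGF-1- or insulin-stimulated signal. Compounds (30 uM to 1.5 nM) added 2 h before ligand, then 15 min stimulation (IGF-1 30 ng/ml or insulin 3 ug/ml).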

The target of a further assay is T3, human IR (hIR) (Homo sapiens, UniProt P06213).
T3 construct: containing amino acid residues 979-1382 of human IR; made in house; host or cells: Sf9 cells (baculovirus), same process as hIGF1R
Put plainly: TR-FRET kinase assay of purified hIR. In kind it is biochemical. The following applies: activated hIR 0.5 nM, 10 μM ATP, values given as pIC50 category.

In assay [2] the target is T4, NIH-3T3 cells overexpressing human IGF-1R (Homo sapiens, UniProt P08069).
T4 construct: expressed in transfected cells; host or cells: NIH-3T3 (mouse fibroblasts)
The assay can be described thus: IGF-1R cellular autophosphorylation (DELFIA). In kind it is cell-based. An outline of the steps: as §1

T4 sequence (P08069 31-1367): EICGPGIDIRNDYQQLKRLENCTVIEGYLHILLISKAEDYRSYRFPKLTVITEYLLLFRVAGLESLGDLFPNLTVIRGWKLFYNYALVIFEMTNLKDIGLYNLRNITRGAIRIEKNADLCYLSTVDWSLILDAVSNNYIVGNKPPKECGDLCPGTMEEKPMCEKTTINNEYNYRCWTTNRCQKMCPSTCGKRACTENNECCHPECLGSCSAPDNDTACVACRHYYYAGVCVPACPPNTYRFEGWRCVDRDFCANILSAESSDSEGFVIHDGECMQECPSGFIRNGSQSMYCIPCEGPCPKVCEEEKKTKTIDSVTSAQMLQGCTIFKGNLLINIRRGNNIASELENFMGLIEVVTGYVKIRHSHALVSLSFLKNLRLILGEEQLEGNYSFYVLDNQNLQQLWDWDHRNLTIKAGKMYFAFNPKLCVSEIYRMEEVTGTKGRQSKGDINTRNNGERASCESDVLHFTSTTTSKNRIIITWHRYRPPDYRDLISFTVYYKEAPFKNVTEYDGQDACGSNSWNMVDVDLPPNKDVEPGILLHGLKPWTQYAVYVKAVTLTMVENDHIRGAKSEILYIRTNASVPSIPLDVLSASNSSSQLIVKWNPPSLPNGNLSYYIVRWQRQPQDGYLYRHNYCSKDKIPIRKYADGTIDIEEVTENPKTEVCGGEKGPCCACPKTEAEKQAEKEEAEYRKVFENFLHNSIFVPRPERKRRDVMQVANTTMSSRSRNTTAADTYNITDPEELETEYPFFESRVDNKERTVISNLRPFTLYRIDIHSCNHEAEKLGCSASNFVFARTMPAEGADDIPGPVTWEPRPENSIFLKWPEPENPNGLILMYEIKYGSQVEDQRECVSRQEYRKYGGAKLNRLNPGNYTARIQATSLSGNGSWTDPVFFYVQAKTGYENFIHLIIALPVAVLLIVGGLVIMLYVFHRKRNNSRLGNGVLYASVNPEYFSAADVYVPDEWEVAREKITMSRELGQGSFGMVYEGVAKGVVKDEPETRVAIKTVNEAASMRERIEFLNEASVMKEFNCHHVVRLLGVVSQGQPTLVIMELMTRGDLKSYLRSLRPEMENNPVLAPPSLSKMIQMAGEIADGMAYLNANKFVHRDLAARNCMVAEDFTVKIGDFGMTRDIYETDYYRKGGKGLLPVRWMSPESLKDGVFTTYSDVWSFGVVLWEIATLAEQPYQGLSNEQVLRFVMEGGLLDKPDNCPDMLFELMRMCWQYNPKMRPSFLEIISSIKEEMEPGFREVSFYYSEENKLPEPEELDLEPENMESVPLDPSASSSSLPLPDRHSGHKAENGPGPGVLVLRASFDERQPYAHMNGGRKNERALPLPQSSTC
T3 sequence (P06213 979-1382): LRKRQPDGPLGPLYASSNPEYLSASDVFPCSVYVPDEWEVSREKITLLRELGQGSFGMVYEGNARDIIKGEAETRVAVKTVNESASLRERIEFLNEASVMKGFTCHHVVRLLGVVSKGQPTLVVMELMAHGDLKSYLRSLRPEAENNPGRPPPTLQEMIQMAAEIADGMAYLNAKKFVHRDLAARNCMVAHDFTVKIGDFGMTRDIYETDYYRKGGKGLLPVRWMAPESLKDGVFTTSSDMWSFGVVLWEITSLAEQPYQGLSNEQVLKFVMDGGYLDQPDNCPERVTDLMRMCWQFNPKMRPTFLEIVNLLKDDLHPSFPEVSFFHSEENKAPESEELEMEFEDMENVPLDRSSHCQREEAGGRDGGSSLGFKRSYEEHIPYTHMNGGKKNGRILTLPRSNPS
T1 sequence (P08069 957-1367): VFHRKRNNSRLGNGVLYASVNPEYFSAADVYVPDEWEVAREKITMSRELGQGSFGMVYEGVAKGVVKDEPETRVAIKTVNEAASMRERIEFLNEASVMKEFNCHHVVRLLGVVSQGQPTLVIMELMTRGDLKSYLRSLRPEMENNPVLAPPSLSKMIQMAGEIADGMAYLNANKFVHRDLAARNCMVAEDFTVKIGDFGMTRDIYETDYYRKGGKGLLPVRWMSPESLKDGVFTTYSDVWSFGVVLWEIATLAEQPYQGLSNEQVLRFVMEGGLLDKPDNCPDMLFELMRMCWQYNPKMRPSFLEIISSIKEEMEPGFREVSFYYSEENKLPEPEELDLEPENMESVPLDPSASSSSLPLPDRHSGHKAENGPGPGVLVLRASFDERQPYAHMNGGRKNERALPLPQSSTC
T2 sequence (P06213 28-1382): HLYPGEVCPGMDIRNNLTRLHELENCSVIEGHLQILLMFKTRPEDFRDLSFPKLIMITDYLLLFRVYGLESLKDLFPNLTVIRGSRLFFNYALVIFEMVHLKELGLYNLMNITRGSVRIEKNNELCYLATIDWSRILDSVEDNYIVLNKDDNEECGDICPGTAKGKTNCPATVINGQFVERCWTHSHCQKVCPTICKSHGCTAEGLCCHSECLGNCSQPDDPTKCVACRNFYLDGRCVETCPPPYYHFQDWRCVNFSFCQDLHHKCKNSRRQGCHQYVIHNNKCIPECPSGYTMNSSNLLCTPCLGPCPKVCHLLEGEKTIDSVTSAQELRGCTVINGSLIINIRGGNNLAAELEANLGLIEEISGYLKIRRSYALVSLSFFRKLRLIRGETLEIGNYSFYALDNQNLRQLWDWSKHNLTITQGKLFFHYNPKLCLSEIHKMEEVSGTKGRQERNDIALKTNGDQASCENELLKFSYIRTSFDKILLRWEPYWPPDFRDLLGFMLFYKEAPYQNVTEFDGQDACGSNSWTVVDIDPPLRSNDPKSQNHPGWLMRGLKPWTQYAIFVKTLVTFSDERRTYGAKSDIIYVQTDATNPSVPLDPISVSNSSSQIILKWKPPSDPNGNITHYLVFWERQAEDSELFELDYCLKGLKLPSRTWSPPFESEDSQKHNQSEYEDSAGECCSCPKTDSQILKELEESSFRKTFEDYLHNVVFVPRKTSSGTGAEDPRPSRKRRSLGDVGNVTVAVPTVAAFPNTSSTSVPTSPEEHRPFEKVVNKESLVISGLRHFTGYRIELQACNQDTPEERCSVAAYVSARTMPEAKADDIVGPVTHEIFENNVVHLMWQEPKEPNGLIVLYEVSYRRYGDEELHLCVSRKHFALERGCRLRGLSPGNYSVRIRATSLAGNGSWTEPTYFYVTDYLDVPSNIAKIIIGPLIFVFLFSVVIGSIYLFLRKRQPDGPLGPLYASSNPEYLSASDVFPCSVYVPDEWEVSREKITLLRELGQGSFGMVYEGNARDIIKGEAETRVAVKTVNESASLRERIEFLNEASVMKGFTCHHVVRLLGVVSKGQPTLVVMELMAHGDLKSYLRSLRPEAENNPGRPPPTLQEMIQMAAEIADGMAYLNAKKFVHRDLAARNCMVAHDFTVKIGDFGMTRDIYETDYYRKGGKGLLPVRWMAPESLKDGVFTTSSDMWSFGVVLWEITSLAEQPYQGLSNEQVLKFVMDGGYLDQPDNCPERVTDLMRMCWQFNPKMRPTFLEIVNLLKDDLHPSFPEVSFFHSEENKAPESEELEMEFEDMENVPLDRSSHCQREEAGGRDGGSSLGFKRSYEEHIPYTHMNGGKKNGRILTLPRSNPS

As to `COc1ccc(OC[C@@H](O)CN2CCCC2)cc1Nc1nc(Nc2cc(F)c(F)cc2C(N)=O)c2cc[nH]c2n1` [Example 107, 4,5-difluoro-2-[(2-{[5-{[(2S)-2-hydroxy-3-(1-pyrrolidinyl)propyl]oxy}-2-(methyloxy)phenyl]amino}-1H-pyrrolo[2,3-d]pyrimidin-4-yl)amino]benzamide], the IC50 on human IGF1R (hIGF1R) is 0.251 to 1 nM; in assay [1], more than 500 nM; at human IR (hIR), 0.251 to 1 nM; in assay [2] it was 100 to 500 nM.
Consider `COc1cc(C2CCN(C(C)C)CC2)ccc1Nc1nc(Nc2ccc(F)cc2C(N)=O)c2cc[nH]c2n1` [Example 58, 5-fluoro-2-[(2-{[4-[1-(1-methylethyl)-4-piperidinyl]-2-(methyloxy)phenyl]amino}-1H-pyrrolo[2,3-d]pyrimidin-4-yl)amino]benzamide], for which the IC50 on human IGF1R (hIGF1R) is 0.251 to 1 nM; in assay [1], less than 100 nM; against human IR (hIR), 0.251 to 1 nM; in assay [2], less than 100 nM.
For the compound `CNC(=O)c1c(F)cccc1Nc1nc(Nc2cc(N(C)C(=O)CN(C)C)ccc2OC)nc2[nH]ccc12` [Example 242, 2-[(2-{[5-[(N,N-dimethylglycyl)(methyl)amino]-2-(methyloxy)phenyl]amino}-1H-pyrrolo[2,3-d]pyrimidin-4-yl)amino]-6-fluoro-N-methylbenzamide], the IC50 at human IGF1R (hIGF1R) was 5.01 to 200 nM; in assay [1] it was less than 100 nM; on human IR (hIR) it was 5.01 to 158 nM; in assay [2] it was 100 to 500 nM.
The corresponding values for `COc1cc2c(cc1Nc1nc(Nc3cccc(F)c3C(N)=O)c3cc[nH]c3n1)CN(C)CC2` [Example 121, 2-fluoro-6-[(2-{[2-methyl-6-(methyloxy)-1,2,3,4-tetrahydro-7-isoquinolinyl]amino}-1H-pyrrolo[2,3-d]pyrimidin-4-yl)amino]benzamide] are 5.01 to 200 nM, 100 to 500 nM, 1.26 to 3.98 nM and 100 to 500 nM.
The corresponding values for `CCCN(CCC)[C@@H](C)C(=O)N1CCc2cc(OC)c(Nc3nc(Nc4cccc(F)c4C(=O)NC)c4cc[nH]c4n3)cc21` [Example 191, 2-[(2-{[1-(N,N-dipropyl-L-alanyl)-5-(methyloxy)-2,3-dihydro-1H-indol-6-yl]amino}-1H-pyrrolo[2,3-d]pyrimidin-4-yl)amino]-6-fluoro-N-methylbenzamide] are 5.01 to 200 nM, more than 500 nM, 5.01 to 158 nM and 100 to 500 nM.
For the compound `COc1cc2c(cc1Nc1nc(Nc3cccc4c3C(=O)NC4)c3cc[nH]c3n1)N(C(=O)CN(C)C)CC2` [Example 200, 7-[(2-{[1-(N,N-dimethylglycyl)-5-(methyloxy)-2,3-dihydro-1H-indol-6-yl]amino}-1H-pyrrolo[2,3-d]pyrimidin-4-yl)amino]-2,3-dihydro-1H-isoindol-1-one], the IC50 was 0.251 to 1 nM at human IGF1R (hIGF1R), less than 100 nM in assay [1], 0.251 to 1 nM on human IR (hIR) and less than 100 nM in assay [2].
`CNC(=O)c1c(F)cccc1Nc1nc(Nc2cc3c(cc2OC)CCN(C(C)C)C3)nc2[nH]ccc12` [Example 235, 2-fluoro-N-methyl-6-[(2-{[2-(1-methylethyl)-6-(methyloxy)-1,2,3,4-tetrahydro-7-isoquinolinyl]amino}-1H-pyrrolo[2,3-d]pyrimidin-4-yl)amino]benzamide]: the IC50 was 5.01 to 200 nM at human IGF1R (hIGF1R), more than 500 nM in assay [1], 1.26 to 3.98 nM at human IR (hIR) and more than 500 nM in assay [2].
For `CCC(C)N1CCc2cc(OC)c(Nc3nc(Nc4cccc(F)c4C(=O)NC)c4cc[nH]c4n3)cc2C1` (stereo not shown) [Example 238, 2-fluoro-N-methyl-6-[(2-{[6-(methyloxy)-2-(1-methylpropyl)-1,2,3,4-tetrahydro-7-isoquinolinyl]amino}-1H-pyrrolo[2,3-d]pyrimidin-4-yl)amino]benzamide], the IC50 on human IGF1R (hIGF1R) was 5.01 to 200 nM; in assay [1], 100 to 500 nM; against human IR (hIR), 1.26 to 3.98 nM; in assay [2], more than 500 nM.
`COc1cc2c(cc1Nc1nc(Nc3cccc(F)c3C(N)=O)c3cc[nH]c3n1)CN(C(=O)CCN(C)C)CC2` [Example 230, 2-[(2-{[2-(N,N-dimethyl-β-alanyl)-6-(methyloxy)-1,2,3,4-tetrahydro-7-isoquinolinyl]amino}-1H-pyrrolo[2,3-d]pyrimidin-4-yl)amino]-6-fluorobenzamide]: the IC50 on human IGF1R (hIGF1R) is 5.01 to 200 nM; in assay [1] it was 100 to 500 nM; at human IR (hIR) it was 5.01 to 158 nM; in assay [2] it was more than 500 nM.
Take `COc1cc2c(cc1Nc1nc(Nc3cccc(F)c3C(N)=O)c3cc[nH]c3n1)N(C(=O)Cn1ccnc1)CC2` [Example 145, 2-fluoro-6-[(2-{[1-(1H-imidazol-1-ylacetyl)-5-(methyloxy)-2,3-dihydro-1H-indol-6-yl]amino}-1H-pyrrolo[2,3-d]pyrimidin-4-yl)amino]benzamide]: the IC50 at human IGF1R (hIGF1R) is 5.01 to 200 nM; in assay [1], more than 500 nM; on human IR (hIR) it was 5.01 to 158 nM; in assay [2] it was more than 500 nM.
For the compound `COc1cc2c(cc1Nc1nc(Nc3cccc(F)c3C(N)=O)c3cc[nH]c3n1)N(C(C)=O)CC2` [Example 134, 2-[(2-{[1-acetyl-5-(methyloxy)-2,3-dihydro-1H-indol-6-yl]amino}-1H-pyrrolo[2,3-d]pyrimidin-4-yl)amino]-6-fluorobenzamide], the IC50 at human IGF1R (hIGF1R) was 5.01 to 200 nM; in assay [1], less than 100 nM; on human IR (hIR), 1.26 to 3.98 nM; in assay [2] it was 100 to 500 nM.
`COc1cc(N2CCN(C(C)C)CC2)c(C)cc1Nc1nc(Nc2cc(F)cc(F)c2C(N)=O)c2cc[nH]c2n1` [Example 91, 2,4-difluoro-6-[(2-{[5-methyl-4-[4-(1-methylethyl)-1-piperazinyl]-2-(methyloxy)phenyl]amino}-1H-pyrrolo[2,3-d]pyrimidin-4-yl)amino]benzamide]: the IC50 was 0.251 to 1 nM at human IGF1R (hIGF1R), less than 100 nM in assay [1], 1.26 to 3.98 nM at human IR (hIR) and less than 100 nM in assay [2].
Take `CCN(C)CC(=O)N1CCc2cc(OC)c(Nc3nc(Nc4cccc(F)c4C(=O)NC)c4cc[nH]c4n3)cc21` [Example 165, 2-[(2-{[1-(N-ethyl-N-methylglycyl)-5-(methyloxy)-2,3-dihydro-1H-indol-6-yl]amino}-1H-pyrrolo[2,3-d]pyrimidin-4-yl)amino]-6-fluoro-N-methylbenzamide]: the IC50 at human IGF1R (hIGF1R) is 5.01 to 200 nM; in assay [1], 100 to 500 nM; on human IR (hIR), 5.01 to 158 nM; in assay [2], 100 to 500 nM.
Turning to `COc1cc2c(cc1Nc1nc(Nc3cccc(F)c3C(N)=O)c3cc[nH]c3n1)N(C(=O)CN1CCC1)CC2` [Example 143, 2-[(2-{[1-(1-azetidinylacetyl)-5-(methyloxy)-2,3-dihydro-1H-indol-6-yl]amino}-1H-pyrrolo[2,3-d]pyrimidin-4-yl)amino]-6-fluorobenzamide], the IC50 at human IGF1R (hIGF1R) is 0.251 to 1 nM; in assay [1], 100 to 500 nM; at human IR (hIR), 0.251 to 1 nM; in assay [2], 100 to 500 nM.
Consider `COc1cc(N2CCCN(S(C)(=O)=O)CC2)ccc1Nc1nc(Nc2cccc(F)c2C(N)=O)c2cc[nH]c2n1` [Example 207, 2-fluoro-6-{[2-({2-(methyloxy)-4-[4-(methylsulfonyl)hexahydro-1H-1,4-diazepin-1-yl]phenyl}amino)-1H-pyrrolo[2,3-d]pyrimidin-4-yl]amino}benzamide], for which the IC50 on human IGF1R (hIGF1R) is 5.01 to 200 nM; in assay [1] it was more than 500 nM; at human IR (hIR) it was 5.01 to 158 nM; in assay [2], more than 500 nM.
`COc1cc2c(cc1Nc1nc(Nc3cccc(F)c3C(N)=O)c3cc[nH]c3n1)CN(CCCN(C)C)CC2` [Example 232, 2-[(2-{[2-[3-(dimethylamino)propyl]-6-(methyloxy)-1,2,3,4-tetrahydro-7-isoquinolinyl]amino}-1H-pyrrolo[2,3-d]pyrimidin-4-yl)amino]-6-fluorobenzamide]: the IC50 is 5.01 to 200 nM at human IGF1R (hIGF1R), more than 500 nM in assay [1], 1.26 to 3.98 nM against human IR (hIR) and more than 500 nM in assay [2].
As to `COc1cc(N2CCCN(C(C)C)CC2)ccc1Nc1nc(Nc2cccc(F)c2C(N)=O)c2cc[nH]c2n1` [Example 208, 2-fluoro-6-[(2-{[4-[4-(1-methylethyl)hexahydro-1H-1,4-diazepin-1-yl]-2-(methyloxy)phenyl]amino}-1H-pyrrolo[2,3-d]pyrimidin-4-yl)amino]benzamide], the IC50 at human IGF1R (hIGF1R) was 5.01 to 200 nM; in assay [1] it was 100 to 500 nM; at human IR (hIR), 5.01 to 158 nM; in assay [2] it was 100 to 500 nM.
`COc1cc2c(cc1Nc1nc(Nc3cc(F)cc(F)c3C(N)=O)c3cc[nH]c3n1)N(C(=O)CN1CCCC1)CCC2` [Example 219, 2,4-difluoro-6-[(2-{[6-(methyloxy)-1-(1-pyrrolidinylacetyl)-1,2,3,4-tetrahydro-7-quinolinyl]amino}-1H-pyrrolo[2,3-d]pyrimidin-4-yl)amino]benzamide]: the IC50 at human IGF1R (hIGF1R) was 0.251 to 1 nM; in assay [1], less than 100 nM; against human IR (hIR) it was 0.251 to 1 nM; in assay [2], less than 100 nM.
`COc1cc2c(cc1Nc1nc(Nc3cccc(F)c3C(N)=O)c3cc[nH]c3n1)NCC2` [Example 140, 2-fluoro-6-[(2-{[5-(methyloxy)-2,3-dihydro-1H-indol-6-yl]amino}-1H-pyrrolo[2,3-d]pyrimidin-4-yl)amino]benzamide]: the IC50 at human IGF1R (hIGF1R) was 5.01 to 200 nM; in assay [1] it was more than 500 nM; on human IR (hIR), 5.01 to 158 nM; in assay [2], more than 500 nM.
